According to ChEMBL document CHEMBL3301472, “MMV Malaria Box HIV and cytotoxicity screening”:

Experiments:
[1] = MMV: MTT Cytotoxicity Assay Day 7 pi of Assay #7 (compound washed out Day 1 pi), U87-CD4-CXCR4 cells, % cell death @ 5mM compound; format: toxicity, cell-based; details: human, u87-cd4-cxcr4, 5000 µM
[2] = test system: Human immunodeficiency virus 1; test: MMV: HIV NL4-3 CXCR4-tropic replication-competent virus, NO washout, P24 ELISA Day 7 pi, U87-CD4-CXCR4, % inhibition at 5 mM compound; format: functional; parameters: dose or concentration left out as unconfirmed; details: Human immunodeficiency virus 1, NL4-3, U87.CD4.CXCR4, 168 h
[3] = MMV: MTT Cytotoxicity Assay Day 7 pi of Assay #10 (NO washout), U87-CD4-CCR5 cells, % cell death @ 5mM compound; format: toxicity, cell-based; details: human, u87-cd4-ccr5, 5000 µM
[4] = MMV: MTT Cytotoxicity Assay Day 3 pi, U87-CD4-CXCR4 cells, % cell death @ 5mM compound; format: toxicity, cell-based; details: human, u87-cd4-cxcr4, 5000 µM
[5] = MMV: MTT Cytotoxicity Assay Day 7 pi of Assay #6 (compound washed out Day 1 pi), U87-CD4-CCR5 cells, % cell death @ 5mM compound; format: toxicity, cell-based; details: human, u87-cd4-ccr5, 5000 µM
[6] = MMV: MTT Cytotoxicity Assay Day 3 pi, U87-CD4-CCR5 cells, % cell death @ 5mM compound; format: toxicity, cell-based; details: human, u87-cd4-ccr5, 5000 µM
[7] = MMV: MTT Cytotoxicity Assay Day 7 pi of Assay #11 (NO washout), U87-CD4-CXCR4 cells, % cell death @ 5mM compound; format: toxicity, cell-based; details: human, u87-cd4-cxcr4, 5000 µM
[8] = test system: Human immunodeficiency virus 1; test: MMV: HIV NL4-3 CXCR4-tropic replication-competent virus, virus & compound washed out Day 1 pi, P24 ELISA Day 7 pi, U87-CD4-CXCR4, % inhibition at 5 mM compound; format: functional; parameters: dose or concentration left out as unconfirmed; details: Human immunodeficiency virus 1, NL4-3, U87.CD4.CXCR4
[9] = test system: Human immunodeficiency virus 1; test: MMV: HIV JRFL CCR5-tropic replication-competent virus, virus & compound washed out Day 1 pi, P24 ELISA Day 7 pi, U87-CD4-CCR5, % inhibition at 5 mM compound; format: functional; parameters: dose or concentration left out as unconfirmed; details: Human immunodeficiency virus 1, JR-FL
[10] = test system: Human immunodeficiency virus 1; test: MMV: HIV CXCR4-tropic env NL4-3 pseudovirus assay produces luciferase signal in lieu of replicating viral particles Day 3 pi, U87-CD4-CXCR4, % inhibition at 5 mM compound; format: functional; parameters: dose or concentration left out as unconfirmed; details: Human immunodeficiency virus 1, NL4-3, U87.CD4.CXCR4, 72 h
[11] = test system: Human immunodeficiency virus 1; test: MMV: HIV CXCR4-tropic env HxB2 pseudovirus assay produces luciferase signal in lieu of replicating viral particles Day 3 pi, U87-CD4-CXCR4, % inhibition at 5 mM compound; format: functional; parameters: dose or concentration left out as unconfirmed; details: Human immunodeficiency virus 1, HxB2, U87.CD4.CXCR4, 72 h

Row | SMILES | % Cell Death [1] | inhibition [2] [%] | % Cell Death [3] | % Cell Death [4] | % Cell Death [5] | % Cell Death [6] | % Cell Death [7] | inhibition [8] [%] | inhibition [9] [%] | inhibition [10] [%] | inhibition [11] [%]
1 | CSC1=NC(=Nc2c(C)cccc2C)C2(CCC(C(C)(C)C)CC2)N1c1ccc(Cl)cc1 (centres undefined) | -6 | 9 | 12 | 6 | 1 | 3 | 0 | – | – | – | –
2 | CC1(c2ccccc2)Nc2ccccc2-c2nc3ccccc3n21 (centres undefined) | -19 | 4 | 29 | 24 | -21 | 10 | -43 | – | – | – | –
3 | O=C(Nc1ccccc1O)c1ccc(Oc2cccc(C(=O)Nc3ccccc3O)c2)cc1 | -12 | – | 28 | 4 | 17 | 43 | -20 | 0 | – | – | –
4 | O=C(O)C1Cc2c([nH]c3ccccc23)C(c2ccc(Cl)cc2Cl)N1 (centres undefined) | -34 | – | 27 | 11 | 15 | 10 | -2 | 0 | – | – | –
5 | COc1ccc(C(=O)Nc2ccc3nc(N4CCCCC4)cc(C)c3c2)cc1OC | 16 | – | 91 | 23 | 78 | 108 | 106 | 5 | – | – | –
6 | c1ccc(-c2ccc(-c3nc4ccccc4[nH]3)cc2)cc1 | -19 | – | 11 | 6 | 16 | 12 | 70 | -1 | – | – | –
7 | COC(=O)c1ccc(C2C3=C(O)CC(c4ccc(F)cc4)CC3=Nc3ccccc3N2C(=O)c2ccccc2)cc1 (centres undefined) | 12 | – | 18 | 33 | 39 | -1 | -29 | -1 | – | – | –
8 | O=[N+]([O-])c1ccc(C=NNc2nc3ccccc3[nH]2)cc1 | -15 | – | 38 | 6 | 28 | 32 | 22 | 0 | – | – | –
9 | O=C(O)C(=O)O.Oc1ccccc1CN1CCN(C(c2ccccc2)c2ccccc2)CC1 | 28 | 0 | 22 | 12 | 2 | 4 | 56 | – | – | – | –
10 | O=C(CCc1ccco1)NC1CCN(CC2(c3ccc(Cl)cc3)CCC2)CC1 | 24 | – | 109 | 38 | 2 | 18 | 97 | 1 | – | – | –
11 | CCN(CC)CCNc1ccnc2cc3ccccc3cc12.O=P(O)(O)O | -15 | – | 10 | 28 | -26 | 33 | -36 | -1 | 9 | – | –
12 | CCOc1cc(Cl)c(C(C)NC(=O)c2ccccc2)cc1OCC (centres undefined) | -6 | – | 15 | 34 | -4 | 28 | 90 | 1 | 0 | – | –
13 | COCCn1c(C)nc2ccccc2c1=O | 11 | – | 14 | 19 | -8 | 23 | 32 | 2 | 3 | – | –
14 | OC(Cn1nnc2ccccc21)Cn1c2ccc(Br)cc2c2cc(Br)ccc21 (centres undefined) | 8 | – | 27 | -29 | 2 | 15 | 18 | 1 | -2 | – | –
15 | CCCC(c1nnnn1C1CCCCC1)N1CCN(C(=O)c2ccco2)CC1.Cl (centres undefined) | -21 | 7 | -2 | 12 | -14 | -3 | 34 | – | – | – | –
16 | CC(C)(C)c1ccc(C(=O)Nc2c3c(nn2-c2cccc(Cl)c2)CSC3)cc1 | -2 | – | 7 | -37 | 2 | 7 | 1 | 7 | – | – | –
17 | CCOc1cc2c(cc1OCC)C(c1cc(Cl)c(O)c(OCC)c1)NCC2 (centres undefined) | -20 | – | 21 | 15 | 8 | -45 | 38 | 3 | – | – | –
18 | O=C(Nc1nc(-c2ccccn2)cs1)c1ccccc1Br | -6 | – | 118 | 28 | -13 | -1 | 85 | 4 | – | – | –
19 | Cc1cccc(N2C(=O)C3C(C2=O)C2(c4ccccc4)C(=O)C3(c3ccccc3)C(c3ccc4c(c3)OCO4)=C2c2ccc3c(c2)OCO3)c1 (centres undefined) | -2 | – | 0 | 35 | 4 | 4 | -20 | 3 | – | – | –
20 | CCCc1c(C)nc2ccc(Br)cc2c1O | 7 | – | 25 | 29 | -7 | 4 | 27 | 5 | – | – | –
21 | CCOc1ccc(Nc2c3ccccc3nc3ccccc23)cc1.Cl | 42 | – | 43 | 1 | 34 | 47 | 95 | – | – | 2 | 5
22 | COc1ccc(C2Sc3ccccc3N=C3C2=C(O)c2ccccc23)cc1 (centres undefined) | -32 | – | 17 | 10 | 7 | 0 | 3 | 7 | 7 | – | –
23 | CCCCCCC(O)(c1ccc(F)cc1)C(CN1CCOCC1)c1ccccc1.Cl (centres undefined) | -17 | – | -2 | 12 | 3 | 13 | -35 | 8 | – | – | –
24 | COc1ccc(NC(=O)C2c3ccccc3C(=O)N(CC(C)C)C2c2cccs2)cc1 (centres undefined) | -38 | – | -9 | 13 | -1 | 16 | -27 | 6 | 3 | – | –
25 | Cc1c(C)n(CC(O)CNC2CCCCC2C)c2ccccc12 (centres undefined) | -17 | 7 | -14 | 18 | -11 | -17 | -68 | – | – | – | –
26 | C=CCc1c(C)nc2ccccc2c1O | 38 | – | 109 | 36 | -8 | 4 | 50 | 4 | – | – | –
